Source: US20240122930A1, “INTEGRIN INHIBITORS AND USES THEREOF IN COMBINATION WITH OTHER AGENTS” (Pliant Therapeutics, Inc., priority 2022, published 2024)
Entries after “also recorded” stand apart in the source; their conditions may differ.

Key:
[1] = test system: participants with idiopathic pulmonary fibrosis (IPF); conditions: FIG. 26, histograms from left to right; from USPI or literature; cited from earlier work
[2] = target: recombinant human integrin αVβ6 (Homo sapiens, UniProt P06756+P18564); test: Solid phase integrin αVβ6 binding assay; conditions: TGFβ1 LAP, values presented in four ranges, read-out: αvβ6 Inhibition IC50 (nM)-range
recombinant human integrin αVβ6, sequence (P06756 31-992 limits assumed): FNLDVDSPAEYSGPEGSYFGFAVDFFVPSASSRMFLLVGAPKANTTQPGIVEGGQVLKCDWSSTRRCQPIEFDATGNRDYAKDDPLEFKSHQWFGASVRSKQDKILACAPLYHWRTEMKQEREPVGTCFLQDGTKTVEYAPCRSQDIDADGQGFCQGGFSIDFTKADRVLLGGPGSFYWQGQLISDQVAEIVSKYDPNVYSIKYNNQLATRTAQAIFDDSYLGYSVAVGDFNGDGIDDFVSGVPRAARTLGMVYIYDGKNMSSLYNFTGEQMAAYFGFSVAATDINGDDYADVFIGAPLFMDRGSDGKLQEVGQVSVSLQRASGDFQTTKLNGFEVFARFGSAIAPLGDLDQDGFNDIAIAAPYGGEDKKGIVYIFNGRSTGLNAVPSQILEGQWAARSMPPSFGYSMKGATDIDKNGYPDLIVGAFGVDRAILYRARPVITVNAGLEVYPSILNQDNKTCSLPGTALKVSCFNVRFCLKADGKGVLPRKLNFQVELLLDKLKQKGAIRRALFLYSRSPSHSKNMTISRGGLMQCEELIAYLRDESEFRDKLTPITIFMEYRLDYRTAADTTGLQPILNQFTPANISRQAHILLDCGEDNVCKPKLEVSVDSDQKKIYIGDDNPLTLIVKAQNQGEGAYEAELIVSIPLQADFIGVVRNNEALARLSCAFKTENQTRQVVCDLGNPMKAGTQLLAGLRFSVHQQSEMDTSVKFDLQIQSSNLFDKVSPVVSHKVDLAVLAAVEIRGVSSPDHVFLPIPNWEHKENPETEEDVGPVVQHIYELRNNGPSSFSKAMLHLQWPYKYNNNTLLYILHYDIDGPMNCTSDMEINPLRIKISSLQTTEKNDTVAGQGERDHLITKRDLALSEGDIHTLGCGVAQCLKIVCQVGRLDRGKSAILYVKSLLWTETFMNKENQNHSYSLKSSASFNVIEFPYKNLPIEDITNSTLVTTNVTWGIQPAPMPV
recombinant human integrin αVβ6, sequence (P18564 22-707 limits assumed): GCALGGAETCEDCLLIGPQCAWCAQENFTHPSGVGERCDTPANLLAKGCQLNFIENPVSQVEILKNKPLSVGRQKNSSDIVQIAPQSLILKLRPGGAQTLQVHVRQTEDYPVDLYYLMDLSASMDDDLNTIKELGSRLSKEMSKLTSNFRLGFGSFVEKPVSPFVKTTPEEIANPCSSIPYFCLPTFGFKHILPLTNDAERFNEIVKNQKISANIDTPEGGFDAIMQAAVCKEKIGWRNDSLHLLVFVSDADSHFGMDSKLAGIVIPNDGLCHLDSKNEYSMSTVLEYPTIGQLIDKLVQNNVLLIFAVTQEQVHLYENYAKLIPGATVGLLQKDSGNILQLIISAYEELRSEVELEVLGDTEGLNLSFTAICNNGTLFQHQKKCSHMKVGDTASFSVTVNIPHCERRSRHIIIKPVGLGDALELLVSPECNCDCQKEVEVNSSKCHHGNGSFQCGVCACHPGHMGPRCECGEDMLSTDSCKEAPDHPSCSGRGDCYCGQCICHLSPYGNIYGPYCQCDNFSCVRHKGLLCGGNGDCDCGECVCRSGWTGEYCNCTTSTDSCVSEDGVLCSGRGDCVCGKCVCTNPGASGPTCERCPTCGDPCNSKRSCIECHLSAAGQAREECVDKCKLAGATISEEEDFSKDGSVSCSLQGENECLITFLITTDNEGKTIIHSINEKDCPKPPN
Method: Microplates were coated with recombinant human integrin αVβ6 (2 μg/mL) in PBS (100 μL/well 250 C, overnight). The coating solution was removed, washed with wash buffer (0.05% Tween 20; 0.5 mM MnCl2; in 1×TBS). The plate was blocked with 200 μL/well of Block Buffer (1% BSA; 5% sucrose; 0.5 mM MnCl2; in 1×TBS) at 370 C for 2 h. Dilutions of testing compounds and recombinant TGFβ1 LAP (0.67 μg/mL) in binding buffer (0.05% BSA; 2.5% sucrose; 0.5 mM MnCl2; in 1×TBS) were added. The plate was incubated for 2 hours at 250 C, washed, and incubated for 1 hour with Biotin-Anti-hLAP. Bound antibody was detected by peroxidase-conjugated streptavidin. The IC50 values for testing compounds were calculated by a four-parameter logistic regression.
The compounds tested were compound samples prepared according to procedures described in the Synthetic Examples section, with the stereochemical purity as indicated in the Examples.
A third series of exemplary compounds was selected for testing in the solid phase integrin αVβ6 binding assay. The compounds tested were compound samples prepared according to procedures described in the Synthetic Examples section, with the stereochemical purity as indicated in the Examples. […] Bound antibody was detected by peroxidase-conjugated streptavidin. The IC50 values for testing compounds were calculated by a four-parameter logistic regression.

[3] = test system: lung Col1a1 expression; test: Precision cut lung slices, chronic bleomycin exposure, versus and with nintedanib and pirfenidone; type: cell-based, mice (C57BL/6); conditions: chronic bleomycin PCLS, 7 days culture, single agents
Method: Mice (C57BL/6) were administered 3 U/kg of bleomycin (Teva Pharmaceuticals; North Wales, PA) on Day 0 and 1 U/kg of bleomycin on days 14, 28, 42 and 56 via oropharyngeal aspiration while under anesthesia. At day 70, 14 days following the final bleomycin insult, precision cut lung slices were obtained. […] The lobes were then subjected to precision slicing to obtain samples for culture using a microtome (Compresstome VF-300-OZ, Precisionary; Greenville, NC). Individual slices were distributed in a multiwell culture plate and cultured for 7 days under control (DMSO) and test compound conditions. The viability of the slices over the course of culturing was confirmed by WST-1 assay of mitochondrial activity. During the culture period, slices in the control group were treated with DMSO and slices in the test group were treated with a DMSO solution of one of: […]

[4] = test system: COL1A1 expression; test: Precision cut lung slices from human IPF explants, COL1A1 expression; type: cell-based; conditions: human IPF PCLS; for expression of COL1A1: 7 days, treatment alone: nintedanib 75 nM, pirfenidone 50 μM
Source text: Explanted lung tissue was obtained from human IPF subjects and inflated with agarose as described in the preceding examples. Biopsy cores were obtained from the agarose-inflated lung tissue. The biopsy cores were subjected to precision slicing to obtain several hundred μm thick. Individual slices were distributed in a multiwell culture plate and cultured for […] under control (DMSO) and test compound conditions. The viability of the slices over the course of culturing was confirmed by WST-1 assay of mitochondrial activity.
PCLS from 5-7 idiopathic pulmonary fibrosis (IPF) lung tissue samples were cultured for seven days with one of: DMSO; Compound 5 at 200 nM; nintedanib at 75 nM; pirfenidone at 50 μM; a combination of Compound 5 at 200 nM and nintedanib at 75 nM; a combination of Compound 5 at 200 nM and pirfenidone at 50 μM; or an ALK5 inhibitor at 1 μM. […] FIG. 6D is a bar graph showing relative expression of COL1A1 in precision cut lung slices (PCLS) from idiopathic pulmonary fibrosis (IPF) lung tissue upon exposure to Compound 5, clinical standard of care compounds nintedanib (Nin) and pirfenidone (Pirf), and an ALK5 inhibitor, all versus DMSO control.
PCLS from a single IPF lung tissue sample were cultured for seven days with Compound 5 at concentrations of 200 pM, 2 nM, 60 nM, 200 nM, and 1 μM, along with 0.1% DMSO control and an ALK5 inhibitor at 1 μM. […] COL1A1 expression is also graphed for the PCLS in the presence of 0.1% DMSO control, and an ALK5 inhibitor at 1 μM.

[5] = test system: explanted human lung tissue from patients with idiopathic pulmonary fibrosis; test: Fibrosis-related gene expression (nCounter Fibrosis Panel) in precision cut lung slices; type: cell-based
Source text: Briefly, tissue samples from patients with IPF were acquired at the time of lung transplantation. […] Treated slices were lysed in mRNA-compatible buffer for gene expression analysis. For this study, the lysate from n=6 slices per treatment per lung were pooled for analysis using the nCounter Fibrosis Panel (Nanostring) on the nCounter Max analyzer (Nanostring). This commercially available panel of 770 genes includes genes related to initial tissue damage response, chronic inflammation, proliferation of pro-fibrotic cells, and tissue modification leading to fibrotic disease. Technical quality control and normalization of raw Nanostring mRNA count data was performed using an R framework developed by Bhattacharya et al. (Bhattacharya A. et al., Brief Bioinform. 2021 May 20; 22(3):bbaa163; herein incorporated by reference in its entirety). The R packages limma (see URL www.bioconductor.org/packages/release/bioc/html/limma.html, which is incorporated herein by reference in its entirety) and voom (Law, C.

[6] = test system: Type I Collagen gene Col1a1 expression; test: Precision cut lung slices, acute bleomycin exposure, Col1a1 expression; type: cell-based, mice (C57BL/6); conditions: acute bleomycin PCLS, 3 days culture; integrin inhibitors at IC50 for TGF-beta activation, pan-αV and ALK5 inhibitors at 10× IC50
Method: Mice (C57BL/6) were administered 3 U/kg of bleomycin (Teva Pharmaceuticals; North Wales, PA) on day 0 via oropharyngeal aspiration while under anesthesia. On day 14, precision cut lung slices were obtained. Following euthanization, 2% low gelling temp agarose was injected into the mouse lungs via the trachea. […] The lobes were then subjected to precision slicing to obtain samples for culture using a microtome (Compresstome VF-300-OZ, Precisionary; Greenville, NC). Individual slices were distributed in a multiwell culture plate and cultured for 3 days under control (DMSO) and test compound conditions. The viability of the slices over the course of culturing was confirmed by WST-1 assay of mitochondrial activity.

[7] = test system: lung Col1a1 expression; test: Precision cut lung slices, chronic bleomycin exposure, Col1a1 expression; type: cell-based, mice (C57BL/6); conditions: chronic bleomycin PCLS, 7 days culture
Method: Mice (C57BL/6) were administered 3 U/kg of bleomycin (Teva Pharmaceuticals; North Wales, PA) on Day 0 and 1 U/kg of bleomycin on days 14, 28, 42 and 56 via oropharyngeal aspiration while under anesthesia. At day 70, 14 days after the final bleomycin insult, precision cut lung slices were obtained. […] The lobes were then subjected to precision slicing to obtain samples for culture using a microtome (Compresstome VF-300-OZ, Precisionary; Greenville, NC). Individual slices were distributed in a multiwell culture plate and cultured for 7 days under control (DMSO) and test compound conditions. The viability of the slices over the course of culturing was confirmed by WST-1 assay of mitochondrial activity. […] Compound 5; and the small molecule ALK5 inhibitor. […] Compound 5 was run at approximate IC50 for inhibition of TGF-beta activation by αVβ6.

[8] = single treatment, adj. p-value <0.05

[O-][S+]1CCc2nc(N3CCC(c4ncc(Cl)cn4)CC3)nc(NC3(CO)CCC3)c21 (stereo not shown) [BI 1015550]
% Incidence of Diarrhea in IPF Clinical Trials [1]: 17%

COCCN(CCCCc1ccc2c(n1)NCCC2)CCC(Nc1ncnc2cnccc12)C(=O)O (stereo not shown) [Compound 17, 4-((2-methoxyethyl)(4-(5,6,7,8-tetrahydro-1,8-naphthyridin-2-yl)butyl)amino)-2-(pyrido[3,4-d]pyrimidin-4-ylamino)butanoic acid]
IC50 [2]: < 50 nM

COC(=O)c1ccc2c(c1)NC(=O)/C2=C(\Nc1ccc(N(C)C(=O)CN2CCN(C)CC2)cc1)c1ccccc1 [nintedanib, 3-Z-[1-(4-(N-((4-methyl-piperazin-1-yl)-methylcarbonyl)-N-methyl-amino)-anilino)-1-phenyl-methylene]-6-methoxycarbonyl-2-indolinone, reference compound]
lung Col1a1 expression vs DMSO vehicle control slices [3]: slight increase
expression of COL1A1 [4]: did not significantly reduce
Genes up-regulated, Venn region G (FIG. 24) ([5]; IPF precision cut lung slices, 7 days, only altered by nintedanib in the absence of Compound 5): ACTA2 and CCL19 and COL6A5 and ELN and IGF1 and PYGM
logFC CYP2J2 [5, 8]: 1.025

Cc1ccc(=O)n(-c2ccccc2)c1 [pirfenidone, 5-methyl-1phenyl-2-1(H)-pyridone, reference compound]
lung Col1a1 expression vs DMSO vehicle control slices [3]: slight increase
expression of COL1A1 [4]: did not significantly reduce
Genes Down-regulated with Compound 5 and Pirfenidone Alone or in Combination, region F ([5]; FIG. 24 Venn region F: altered by Compound 5 or pirfenidone alone, but not by Compound 5 in combination with pirfenidone): CXCR4; also recorded: PECAM1
Genes Up-regulated with Compound 5 and Pirfenidone Alone or in Combination, region G ([5]; FIG. 24 Venn region G: only altered by pirfenidone in the absence of Compound 5): COL7A1 and MMP7 and PTGS2
logFC KNG1 [5, 8]: −1.1

CC(C)(C)c1cc(Br)cc([C@H](CC(=O)O)NC(=O)CNC(=O)c2cc(O)cc(NC3=NCC(O)CN3)c2)c1 (stereo partly drawn) [second pan-αV small molecule inhibitor, (3S)—N-[3-hydroxy-5-[(1,4,5,6-tetrahydro-5-hydroxy-2-pyrimidinyl)amino]benzoyl]glycyl-3-[3-bromo-5-(1,1-dimethylethyl)phenyl]-β-alanine]
Type I Collagen gene Col1a1 expression, normalized to DMSO control slices [6]: decreased Type I Collagen gene Col1a1 expression comparably

Cc1cccc(-c2n[nH]cc2-c2ccc(F)c(-c3cnn(CCO)c3)c2)n1 [small molecule ALK5 inhibitor, 4-[2-Fluoro-5-[3-(6-methyl-2-pyridinyl)-1H-pyrazol-4-yl]phenyl]-1H-pyrazole-1-ethanol, reference compound]
Type I Collagen gene Col1a1 expression, normalized to DMSO control slices [6]: greatest decrease
lung Col1a1 expression, normalized to DMSO control slices [7]: greatest decrease
lung Col1a1 expression vs DMSO vehicle control slices [3]: substantial, statistically significant (p<0.0001 vs vehicle) decrease
lung Col1a1 expression, normalized to DMSO control slices ([4]; 3 days, 3G9 ≥400 ng/mL, Compound 5 179 nM, ALK5 inhibitor 1 μM): decrease in lung Col1a1 expression
